In US20110183978A1, “Phenylpyri(mi)dinylazoles” (Bayer CropScience AG, priority 2009, published 2011):
Like-named read-outs stand apart in the source and are kept apart here.

How the values were obtained:
Alternaria solani = experiment: Example M: in vivo test on Alternaria solani (leaf blotch disease/tomato/protective); conditions: 168 h, tomato, protective, 500 ppm active substance, assessed 7 days after inoculation, read-out: % Wirkungsgrad (activity level)
Protocol: Solvent: 49 parts by weight N,N-dimethylformamide Emulsifier: 1 part by weight alkylaryl polyglycol ethers For the preparation of a suitable active substance preparation, 1 part by weight of active substance is mixed with the stated quantities of solvent and emulsifier and the concentrate is diluted to the desired concentration with water. For the testing for protective activity, young tomato plants are sprayed with the active substance preparation at the stated application dosage. […] 7 days after the inoculation, the assessment takes place.

Fusarium graminearum = experiment: microbe, parasite or virus in culture; assay type: cell-based
[1] = LogPA (logP of the stated pure compound or, in a mixture, of the main isomer, 1-substituted 3-aryl-1H-pyrazole)
[2] = 72 h, read-out: % Inhibition des Pilzwachstums bei 50 μM
[3] = 168 h, read-out: % Inhibition der DON/AcDON produktion bei 50 μM

| Compound | pest or weed control at 500 ppm (Alternaria solani) | chromatographic logP (physchem; LogPA) | further results |
| --- | --- | --- | --- |
| COCC(=O)Nc1cc(-c2cn(C3CC3)nc2-c2ccc(F)cc2)ccn1 [Compound 321] | 70% | 2.37 | – |
| CCC(=O)Nc1cc(-c2cn(C(C)c3ccccc3F)nc2-c2ccc(F)cc2)ccn1 (stereo not shown) [Compound 248] | 94% | 3.03 | – |
| CCn1cc(-c2ccnc(NC(C)C)n2)c(-c2ccc(F)cc2)n1 [Compound 370] | 95% | 1.91 | – |
| Cc1cc(C(=O)Cn2cc(-c3ccncc3)c(-c3ccc(F)cc3)n2)nn1C [Compound 144] | 94% | – | chromatographic logP (physchem; [1]): 1.31 |
| CC(C)Cn1cc(-c2ccnc(NC(=O)C(C)C)c2)c(-c2ccc(F)c(C#N)c2)n1 [Compound 255] | – | 3.03 | inhibition at 50 µM (Fusarium graminearum; [2]): 0%; inhibition at 50 µM (Fusarium graminearum; [3]): 96% |
| Fc1ccc(-c2nn(Cc3ccccc3-c3ccccc3)cc2-c2ccncc2)cc1 [Compound 135] | 78% | – | chromatographic logP (physchem; [1]): 2.34 |
| CC(Nc1cc(-c2cn(CC3CC3)nc2-c2ccc(F)cc2)ccn1)C(F)(F)F (stereo not shown) [Compound 317] | 70% | 2.33 | – |
| CC(C)Cn1cc(-c2ccnc(NC(=O)C3CC3)c2)c(-c2ccc(F)c(C#N)c2)n1 [Compound 261] | – | 2.77 | inhibition at 50 µM (Fusarium graminearum; [2]): 39%; inhibition at 50 µM (Fusarium graminearum; [3]): 99% |
| CCOC(=O)Cn1cc(-c2ccncc2)c(-c2ccc(F)cc2)n1 [Compound 170] | 78% | 1.31 | – |
| CC(C)Cn1cc(-c2ccnc(NCC3CC3)n2)c(-c2ccc(F)cc2)n1 [Compound 273] | 90% | 2.55 | – |
| COCC(=O)Nc1cc(-c2cn(C(C)c3ccccc3F)nc2-c2ccc(F)cc2)ccn1 (stereo not shown) [Compound 244] | 94% | 3.5 | – |
| C[C@H](O)C(=O)Nc1cc(-c2cn(C)nc2-c2ccc(F)cc2)ccn1 [Compound 353] | 80% | 1.57 | – |
| CCNC(=O)Nc1cc(-c2cn(CC(F)F)nc2-c2ccc(F)cc2)ccn1 [Compound 231] | 95% | 1.91 | – |
| CC(C)Nc1nccc(-c2cn(CCC#N)nc2-c2ccc(F)cc2)n1 [Compound 362] | 80% | 1.74 | – |
| CC(C)Nc1nccc(-c2cn(CC(F)F)nc2-c2ccc(F)cc2)n1 [Compound 364] | 95% | 2.05 | – |
| O=C(Nc1cc(-c2cn(OC3CCCC3)nc2-c2ccc(F)cc2)ccn1)C1CC1 [Compound 269] | 89% | 3.35 | – |
| CC(C)n1cc(-c2ccnc(NC(C)C(F)(F)F)c2)c(-c2ccc(F)cc2)n1 (stereo not shown) [Compound 318] | 80% | 2.26 | – |
| CCC(=O)Nc1cc(-c2cn(Cc3cccc(C#N)c3)nc2-c2ccc(F)cc2)ccn1 [Compound 302] | 95% | 2.38 | – |
| C#CCNc1nccc(-c2c[nH]nc2-c2ccc(F)cc2)n1 [Compound 173] | 94% | 1.44 | – |
| CCC(=O)Nc1nccc(-c2cn(CC(C)C)nc2-c2ccc(F)cc2)n1 [Compound 365] | 80% | 2.7 | – |
| CC(Nc1cc(-c2cn(C)nc2-c2ccc(F)cc2)ccn1)C(F)(F)F (stereo not shown) [Compound 319] | 90% | 1.73 | – |
| CC(C)n1cc(-c2ncnc3[nH]cnc23)c(-c2ccc(F)cc2)n1 [Compound 282] | 70% | 1.79 | – |
| CC(c1ccccc1F)n1cc(-c2ccnc(NC(=O)C3CC3)c2)c(-c2ccc(F)cc2)n1 (stereo not shown) [Compound 259] | 90% | 3.13 | – |
| Fc1ccc(-c2nn(CC3OCCO3)cc2-c2ccncc2)cc1 [Compound 275] | 90% | 1.02 | – |
| CC(C1CC1)n1cc(-c2ccncc2)c(-c2ccc(F)cc2)n1 (stereo not shown) [Compound 305] | 100% | 1.59 | – |
| O=C(Nc1cc(-c2cn(CC(F)F)nc2-c2ccc(F)cc2)ccn1)c1ccsc1 [Compound 235] | 94% | 2.69 | – |
| CCC(=O)Nc1cc(-c2cn(CC(C)C)nc2-c2ccc(F)c(C#N)c2)ccn1 [Compound 230] | – | 2.67 | inhibition at 50 µM (Fusarium graminearum; [2]): 0%; inhibition at 50 µM (Fusarium graminearum; [3]): 97% |

| Compound | pest or weed control at 500 ppm (Alternaria solani) | chromatographic logP (physchem; LogPA) | further results |
| --- | --- | --- | --- |
| CC(C)=CCn1ncc(-c2ccncc2)c1-c1ccc(F)cc1 [Compound 25] | 90% | – | chromatographic logP (physchem; [1]): 2.68 |
| CCOC(=O)Nc1cc(-c2cn(CC(C)C)nc2-c2ccc(F)c(C#N)c2)ccn1 [Compound 265] | – | 3.19 | inhibition at 50 µM (Fusarium graminearum; [2]): 9%; inhibition at 50 µM (Fusarium graminearum; [3]): 98% |
| CC(C)n1cc(-c2ncnc3[nH]ccc23)c(-c2ccc(F)cc2)n1 [Compound 310] | 95% | 1.61 | – |
| CC(C)Cn1cc(-c2ccnc(NC(=O)CC3CC3)c2)c(-c2ccc(F)c(C#N)c2)n1 [Compound 252] | – | 3.14 | inhibition at 50 µM (Fusarium graminearum; [2]): 0%; inhibition at 50 µM (Fusarium graminearum; [3]): 99% |
| CC(C)C(=O)Nc1cc(-c2cn(Cc3cccc(C#N)c3)nc2-c2ccc(F)cc2)ccn1 [Compound 308] | – | 2.69 | – |
| CC(C)n1cc(-c2ccnc(S(C)(=O)=O)n2)c(-c2ccc(F)cc2)n1 [[XLI-1], 4-[3-(4-Fluorophenyl)-1-isopropyl-1H-pyrazol-4-yl]-2-(methylsulphonyl)pyrimidine] | – | – | chromatographic logP (physchem; pH 2.7, logP (pH 2.7)): 2.9 |
| COCC(=O)Nc1cc(-c2cn(C3CCN(C(=O)OC(C)(C)C)CC3)nc2-c2ccc(F)cc2)ccn1 [Compound 204] | – | 3.51 | – |
| CC(C)n1cc(-c2ccnc(NC(=O)C3CC3)c2)c(-c2ccc(F)cc2)n1 [[I-c-1], N-{4-[3-(4-Fluorophenyl)-1-isopropyl-1H-pyrazol-4-yl]pyridin-2-yl}cyclopropanecarboxamide] | – | – | chromatographic logP (physchem; pH 2.7, logP (pH 2.7)): 2.07 |
| COc1ccc(-c2nn(C3CCCCO3)cc2-c2ccncc2)cc1 (stereo not shown) [Compound 43] | – | – | chromatographic logP (physchem; [1]): 1.24 |
| CCOC(=O)CC(CC)CC(=O)Nc1cc(-c2cn(CC)nc2-c2ccc(F)cc2)ccn1 (stereo not shown) [Compound 332] | 90% | 2.9 | – |
| Cc1csc2c(-c3cn(CC(C)C)nc3-c3ccc(F)cc3)ncnc12 [Compound 288] | – | 3.85 | – |
| COCC(=O)Nc1cc(-c2cn(CC(C)C)nc2-c2ccc(F)c(C#N)c2)ccn1 [Compound 246] | – | 2.98 | inhibition at 50 µM (Fusarium graminearum; [2]): 88%; inhibition at 50 µM (Fusarium graminearum; [3]): 99% |
| COc1cc(F)ccc1-c1c(-c2ccncc2)cnn1C1CCCCO1 (stereo not shown) [Compound 64, 4-[5-(4-fluoro-2-methoxyphenyl)-1-(tetrahydro-2H-pyran-2-yl)-1H-pyrazol-4-yl]pyridine] | – | – | chromatographic logP (physchem; [1]): 1.26 |
| c1cnc2c(-c3c(-c4ccncc4)cnn3C3CCCCO3)cccc2c1 (stereo not shown) [Compound 99, 8-[4-(pyridin-4-yl)-1-(tetrahydro-2H-pyran-2-yl)-1H-pyrazol-5-yl]quinoline] | – | – | chromatographic logP (physchem; [1]): 1.09 |
| CSc1nccc(-c2c[nH]nc2-c2ccc(F)cc2)n1 [[XXXIX-1], 4-[3-(4-Fluorophenyl)-1H-pyrazol-4-yl]-2-(methylsulphanyl)pyrimidine] | – | – | chromatographic logP (physchem; pH 2.7, logP (pH 2.7)): 2.28 |
| CC(C)C(=O)Nc1cc(Br)ccn1 [[IV-c-1], N-(4-bromopyridin-2-yl)-2-methylpropanamide] | – | – | chromatographic logP (physchem; pH 2.7, logP (pH 2.7)): 2.09 |
| CC(C)C(=O)Nc1cc(B2OC(C)(C)C(C)(C)O2)ccn1 [[XV-a-4], 2-Methyl-N-[4-(4,4,5,5-tetramethyl-1,3,2-dioxaborolan-2-yl)pyridin-2-yl]propanamide] | – | – | chromatographic logP (physchem; pH 2.7, logP (pH 2.7)): 0.04 |
| COCCn1cc(B2OC(C)(C)C(C)(C)O2)c(-c2ccc(F)cc2)n1 [[V-2], 3-(4-Fluorophenyl)-1-(2-methoxyethyl)-4-(4,4,5,5-tetramethyl-1,3,2-dioxaborolan-2-yl)-1H-pyrazole] | – | – | chromatographic logP (physchem; pH 2.3, LogP (pH 2.3)): 3.58; chromatographic logP (physchem; pH 2.7, logP (pH 2.7)): 3.58 |
| CCn1cc(-c2ccnc(NC(=O)CCCCC(=O)OC)c2)c(-c2ccc(F)cc2)n1 [Compound 330] | – | 2.16 | – |
| CC(C)Cn1cc(-c2ccnc(NC(C)C3CC3)n2)c(-c2ccc(F)cc2)n1 (stereo not shown) [Compound 372] | – | 2.73 | – |
| c1ccc(COc2ccccc2-c2c(-c3ccncc3)cnn2C2CCCCO2)cc1 (stereo not shown) [[X-22], 4-{5-[2-(benzyloxy)phenyl]-1-(tetrahydro-2H-pyran-2-yl)-1H-pyrazol-4-yl}pyridine] | – | – | chromatographic logP (physchem; pH 2.3, LogP (pH 2.3)): 1.64 |
| CCCn1cc(Br)c(-c2ccc(F)cc2)n1 [[VI-14], 4-Bromo-3-(4-fluorophenyl)-1-propyl-1H-pyrazole] | – | – | chromatographic logP (physchem; pH 2.3, LogP (pH 2.3)): 3.89; chromatographic logP (physchem; pH 2.7, logP (pH 2.7)): 3.89 |
| CC1(C)OB(c2ccnc(NC(=O)CC3CC3)c2)OC1(C)C [[XV-a-5], 2-Cyclopropyl-N-[4-(4,4,5,5-tetramethyl-1,3,2-dioxaborolan-2-yl)pyridin-2-yl]acetamide] | – | – | chromatographic logP (physchem; pH 2.7, logP (pH 2.7)): 0.27 |
| CC(C)Nc1nccc(CC(=O)c2ccc(F)cc2)n1 [[XLIV-1], 1-(4-fluorophenyl)-2-[2-(isopropylamino)pyrimidin-4-yl]ethanone] | – | – | chromatographic logP (physchem; pH 2.7, logP (pH 2.7)): 2.05 |
| CCC(=O)Nc1nccc(-c2cn(C(C)C)nc2-c2ccc(F)cc2)n1 [[I-g-1], N-{4-[3-(4-Fluorophenyl)-1-isopropyl-1H-pyrazol-4-yl]pyrimidin-2-yl}propanamide] | – | – | chromatographic logP (physchem; pH 2.7, logP (pH 2.7)): 2.35 |
| CC(C)Nc1nccc(-c2cn(C)nc2-c2ccc(F)cc2)n1 [Compound 361] | 70% | 1.65 | – |
| C#CCn1cc(-c2ccnc(NC(C)C)n2)c(-c2ccc(F)cc2)n1 [Compound 363] | 90% | 1.99 | – |
